This is an account of results in ChEMBL document CHEMBL3044843, “Synthesis of 1,2,3-triazole tethered bifunctional hybrids by click chemistry and their cytotoxic studies” (2013).

Structures can show the parent of a compound that is named as a salt.

Common to all, as to assay type: functional
Settings in all cases: read-out: GI

In assay [1] the test system is COLO 205. In words: Growth inhibition of Homo sapiens (human) COLO205 cells at 10 uM by SRB assay.
For assay [2], the system named is COLO 205. The experiment in a line: Growth inhibition of Homo sapiens (human) COLO205 cells at 100 uM by SRB assay.
In assay [3] the test system is THP-1. The experiment in a line: Growth inhibition of Homo sapiens (human) THP1 cells at 100 uM by SRB assay. A general note: Sulforhodamine B stains cellular protein and so reports cell mass.
In assay [4] the test system is THP-1. The experiment in a line: Growth inhibition of Homo sapiens (human) THP1 cells at 10 uM by SRB assay.
For assay [5], the system named is A549. The experiment in a line: Growth inhibition of Homo sapiens (human) A549 cells at 10 uM by SRB assay.
Assay [6] concerns A549. The experiment in a line: Growth inhibition of Homo sapiens (human) A549 cells at 100 uM by SRB assay.
Assay [7] deals with COLO 205. In words: Growth inhibition of Homo sapiens (human) COLO205 cells at 1 uM by SRB assay.

As to `COc1ccc(C2=NN(C(C)=O)C(c3ccc(OCc4cn(Cc5ccc([N+](=O)[O-])cc5)nn4)c(OC)c3)C2)cc1` (stereo not given), the inhibition of growth at 10 µM is 10% in the assay on COLO 205 [1], 8% with THP-1 [4] and 43% in the assay on A549 [5]. Besides, the inhibition of growth at 100 µM in the assay with COLO 205 [2] was found to be 75%; in the assay with THP-1 [3] it was 14%; in the assay on A549 [6], 84%.

For the compound `CC(=O)O[C@H]1C(=O)[C@@]2(C)[C@H]([C@H](OC(=O)c3ccccc3)[C@]3(O)C[C@H](OC(=O)[C@H](O)[C@@H](NC(=O)c4ccccc4)c4ccccc4)C(C)=C1C3(C)C)[C@]1(OC(C)=O)CO[C@@H]1C[C@@H]2O` [PACLITAXEL], the inhibition of growth at 10 µM in the assay with THP-1 [4] is 62%; with A549 [5] it was 59%.

In the case of `COc1cc(C2CC(c3ccccc3)=NN2C(C)=O)ccc1OCc1cn(Cc2ccc([N+](=O)[O-])cc2)nn1` (stereo not given), the inhibition of growth at 10 µM in the assay on COLO 205 [1] came out at 7%; in the assay with THP-1 [4], 0%; in the assay with A549 [5], 0%. Further, the inhibition of growth at 100 µM was 11% in the assay on COLO 205 [2], 10% with THP-1 [3] and 11% in the assay with A549 [6].

As for `CO[C@@]12[C@H](COC(N)=O)C3=C(C(=O)C(C)=C(N)C3=O)N1C[C@@H]1N[C@@H]12` [MITOMYCIN], in the assay with THP-1 [4], the inhibition of growth at 10 µM turned out to be 65%.

For `COc1cccc2c1C(=O)c1c(O)c3c(c(O)c1C2=O)C[C@@](O)(C(=O)CO)C[C@@H]3O[C@H]1C[C@H](N)[C@H](O)[C@H](C)O1` [DOXORUBICIN HYDROCHLORIDE], the inhibition of growth at 1 µM in the assay with COLO 205 [7] came out at 72%.

For `COc1cc(C2CC(c3cccc4ccccc34)=NN2C(C)=O)ccc1OCc1cn(Cc2ccc([N+](=O)[O-])cc2)nn1` (stereo not given), the inhibition of growth at 10 µM was 46% with COLO 205 [1], 10% with THP-1 [4] and 89% with A549 [5]. The inhibition of growth at 100 µM came out at 72% in the assay with COLO 205 [2], 79% with THP-1 [3] and 95% with A549 [6].

Regarding `COc1cc(C2CC(c3ccc(Cl)cc3)=NN2C(C)=O)ccc1OCc1cn(Cc2ccc([N+](=O)[O-])cc2)nn1` (stereo not given), the inhibition of growth at 10 µM in the assay on COLO 205 [1] was 0%; with THP-1 [4] it was 17%; with A549 [5], 0%. For the same compound, the inhibition of growth at 100 µM was determined as 10% with COLO 205 [2], 37% in the assay on THP-1 [3] and 0% with A549 [6].

Consider `COc1cc(C2CC(c3ccc(Br)cc3)=NN2C(C)=O)ccc1OCc1cn(Cc2ccc([N+](=O)[O-])cc2)nn1` (stereo not given), for which the inhibition of growth at 10 µM in the assay on COLO 205 [1] is 26%; in the assay with THP-1 [4], 1%; in the assay on A549 [5] it was 0%. The inhibition of growth at 100 µM with COLO 205 [2] turned out to be 47%; in the assay on THP-1 [3], 23%; in the assay on A549 [6], 17%.

Consider `COc1ccc(C2CC(c3ccc(OCc4cn(Cc5ccc([N+](=O)[O-])cc5)nn4)cc3)=NN2C(C)=O)cc1` (stereo not given), for which the inhibition of growth at 10 µM in the assay on COLO 205 [1] amounted to 4%; with THP-1 [4] it was 15%; in the assay with A549 [5] it was 26%. Besides, the values for the inhibition of growth at 100 µM with COLO 205 [2], with THP-1 [3] and in the assay on A549 [6] were 37%, 26% and 33%, respectively.

As to `COc1cc(C2CC(c3ccc(OCc4cn(Cc5ccc([N+](=O)[O-])cc5)nn4)cc3)=NN2C(C)=O)ccc1OCc1cn(Cc2ccc([N+](=O)[O-])cc2)nn1` (stereo not given), the inhibition of growth at 10 µM with COLO 205 [1] is 27%; in the assay with THP-1 [4] it was 0%; in the assay on A549 [5], 29%. For the same compound, the inhibition of growth at 100 µM came out at 51% with COLO 205 [2], 15% in the assay with THP-1 [3] and 42% in the assay with A549 [6].

`COc1cc(C2CC(c3ccc([N+](=O)[O-])cc3)=NN2C(C)=O)ccc1OCc1cn(Cc2ccc([N+](=O)[O-])cc2)nn1` (stereo not given): the inhibition of growth at 10 µM was determined as 33% in the assay on COLO 205 [1], 7% in the assay with THP-1 [4] and 39% in the assay on A549 [5]. In addition, the inhibition of growth at 100 µM with COLO 205 [2] turned out to be 85%; with THP-1 [3], 59%; in the assay on A549 [6] it was 72%.

Regarding `COc1cc(C2CC(c3cc(OC)c(OC)c(OC)c3)=NN2C(C)=O)ccc1OCc1cn(Cc2ccc([N+](=O)[O-])cc2)nn1` (stereo not given), the values for the inhibition of growth at 10 µM in the assay with COLO 205 [1], with THP-1 [4] and in the assay with A549 [5] were 60%, 29% and 68%, respectively. For the same compound, the figures for the inhibition of growth at 100 µM with COLO 205 [2], in the assay on THP-1 [3] and in the assay with A549 [6] were 99%, 43% and 85%, respectively.

As for `CC(=O)N1N=C(c2ccc(OCc3cn(Cc4ccc([N+](=O)[O-])cc4)nn3)cc2)CC1c1ccccc1` (stereo not given), the inhibition of growth at 10 µM came out at 18% in the assay on COLO 205 [1], 0% in the assay on THP-1 [4] and 15% in the assay on A549 [5]. Further, the inhibition of growth at 100 µM with COLO 205 [2] was 55%; in the assay on THP-1 [3], 22%; in the assay with A549 [6] it was 80%.

As for `COc1ccc(C2CC(c3ccc(OCc4cn(Cc5ccc([N+](=O)[O-])cc5)nn4)cc3)=NN2C(C)=O)cc1OC` (stereo not given), the inhibition of growth at 10 µM in the assay with COLO 205 [1] was found to be 9%; with THP-1 [4] it was 8%; in the assay with A549 [5], 11%. The inhibition of growth at 100 µM is 38% in the assay on COLO 205 [2], 9% in the assay with THP-1 [3] and 36% with A549 [6].
